Experimental data published in US20240298636A1, “ANTIMICROBIAL AGENTS AND FILMS MADE THEREFROM” (YISSUM RESEARCH DEVELOPMENT COMPANY OF THE HEBREW …, priority 2021, published 2024).

Experiment: QCM-D analysis of peptide adsorption and Cu binding
Type: physicochemical
Conditions: for loaded mass/area of the peptide: 1.5 mg/mL in Tris buffer pH 8.5, after washing, Sauerbrey equation, 5th overtones
Protocol: Quartz Crystal Microbalance with Dissipation (QCM-D) Analysis: The peptides' adsorption and the metal-binding capabilities were studied using QCM-D (Q-sense, Biolin Scientific). The measurements were performed in a flow module E1 system with SiO2 sensors with a fundamental resonant frequency of 5 MHz (Qsense). The sensors were cleaned according to the supplier instructions. The experiments were performed under flow-through conditions using a digital peristaltic pump (IsmaTec Peristaltic Pump, IDEX). The peptide (1.5 mg/mL), control peptide (1.5 mg/mL), and CuCl2 (0.8 mg/mL) were dissolved in a filtered Tris buffer solution (pH=8.5, 10 mM). The solutions were injected circularly into the sensor crystal chamber at a rate of 0.1 mL/min. The peptide solution flowed for -4 h, the control peptide for −80 min, and the CuCl2 solution for -2 h. Between and after the coatings, the sensor was washed with the same Tris buffer solution. The adsorbed mass was calculated according to the Sauerbrey equation using the 5th overtones.

Substance | loaded mass/area of the peptide | loaded mass/area of Cu bound to the peptide layer (Cu(II) solution (CuCl2 0.8 mg/mL) after washing with the buffer) | ratio of Cu ions per each peptide molecule (from loaded mass/area values)
NH2-(Phe)2-(His)6-OH [reference compound] | ~12 ng/cm^2 | – | –
NH2-DOPA-(Phe)2-(His)6-OH [peptide] | ~96 ng/cm^2 | ~9 ng/cm^2 | ~2
